Measured values from publication PMC4754833, “Rilpivirine analogs potently inhibit drug-resistant HIV-1 mutants” (Retrovirology, 2016).

Columns and labels:
HIV-1 RT mutant G190A = assay: single round infection assay, G190A; assay type: cell-based; details: for IC50: Human immunodeficiency virus 1
Description: (§1) The human osteosarcoma cell line, HOS, was obtained from Dr. Richard Schwartz (Michigan State University, East Lansing, MI) and grown in Dulbecco’s modified Eagle’s medium (Invitrogen, Carlsbad, CA) supplemented with 5 % (v/v) fetal bovine serum, 5 % newborn calf serum, and penicillin (50 units/ml) plus streptomycin (50 µg/ml; Quality Biological, Gaithersburg, MD). Virion production and single-round infectivity assays were used to determine antiviral activity (IC50 values) of the compounds as previously described.
(§2) pNLNgoMIVR-ΔEnv.LUC has been described previously. The RT open reading frame was removed from pNLNgoMIVR-ΔEnv.LUC (digestion with SpeI and SalI) and inserted between the SpeI and SalI sites of pBluescript II KS+. Using that construct as the wild-type template, we prepared the following HIV-1 RT mutants using the QuikChange II XL (Stratagene, La Jolla, CA) site-directed mutagenesis protocol kit: L100I, K103N, Y181C, Y188L, H221Y, K103N/Y181C, G190A, G190S, M230L, P236L, L100I/K103N, K103N/P225H, V106A/G190A/F227L, V106A, L234I, V106A/F227L, V106A/L234I, V106A/F227L/L234I, E40K, D67E, K101E, V111A, E138K, M184I, M184V, K101E/M184I, K101E/M184V, E138K/M184I, E138K/M184V, K101P, Y181I, and K101P/V179I. The following sense oligonucleotides were used with matching cognate antisense oligonucleotides (not shown) (Integrated DNA Technologies, Coralville, IA) in the mutagenesis: L100I, 5′-[…]-3′; L100I 2-103, 5′-[…]-3′; K103N, 5′-[…]-3′; Y181C, 5′-[…]-3′; Y188L, 5′-[…]-3′; H221Y, 5′-[…]-3′; G190A, 5′-[…]-3′; G190S, 5′-[…]-3′; P225H, 5′-[…]-3′; F227, 5′-[…]-3′; M230L, 5′-[…]-3′; P236L, 5′-[…]-3′; V106A, 5′-[…]-3′; L234I, 5′-[…]-3′; E40K, 5′-[…]-3′; D67E, 5′-[…]-3′; K101E, 5′-[…]-3′; V111A, 5′-[…]-3′; E138K, 5′-[…]-3′; M184I, 5′-[…]-3′; M184V, 5′-[…]-3′; K101P, 5′-[…]-3′; Y181I, 5′-[…]-3′; K101P/V179I, 5′-[…]-3′. The double mutants K103N/Y181C, K103N/P225H, and L100I/K103N were made using the previously generated K103N mutant and the appropriate oligonucleotides to add the second mutation, Y181C, P225, and L100I respectively. The double mutants V106A/F227L and V106A/L234I were prepared using the previously generated V106A mutant and the appropriate oligonucleotides to add the second mutation, F227L and L234I, respectively. The double mutants K101E/M184I and K101E/M184V were constructed using the previously generated K101E mutant and the appropriate oligonucleotides to add the second mutation, M184I and M184V, respectively. The double mutants E138K/M184I and E138K/M184V were constructed using the previously generated E138K mutant and the appropriate oligonucleotides for the second mutation, M184I and M184V, respectively. The triple mutant V106A/F227L/L234I was made using the previously generated V106A/F227L double mutant and the appropriate oligonucleotides for the third mutation, L234I. The triple mutant V106A/G190A/F227L was constructed in a series of steps using the previously generated V106A mutant and the appropriate oligonucleotides for the second mutation, G190A, to generate the double mutant V106A/G190A, and then the triple mutant was made using double mutant V106A/G190A and oligonucleotides for the third mutation, F227L. The DNA sequence of each construct was verified by DNA sequence determination. The sequences encoding the mutant RTs were then subcloned into pNLNgoMIVR-ΔEnv.LUC (between the KpnI and SalI sites) to produce the mutant HIV-1 constructs. These DNA sequences were also checked independently by DNA sequence determination.
(§3) 10.1186/s12977-016-0244-2 The IC50 values (nM) of RPV and the RPV analogs were determined against the NNRTI resistant mutants were measured by using a single round infection assay, n = 4. The concentrations (nM) are measured by reductions in luciferase reporter activity followed by the standard deviations. […]

HIV-1 RT mutant P236L = assay: single round infection assay, P236L; assay type: cell-based; details: Human immunodeficiency virus 1
Description: as §1, §2, §3

[1] = tested on: HIV-1 RT mutant L100I/K103N; assay: single round infection assay, L100I/K103N; assay type: cell-based; details: for fold-change of IC50 of the mutant relative to WT: L100I/K103N vs WT; for IC50: Human immunodeficiency virus 1, L100I/K103N, ± SD, n=4, limit of detection 100 nM
Description: as §1, §2, §3

[2] = tested on: HIV-1 RT mutant V106A/G190A/F227L; assay: single round infection assay, V106A/G190A/F227L; assay type: cell-based; details: for IC50: Human immunodeficiency virus 1; for fold-change of IC50 of the mutant relative to WT: V106A/G190A/F227L vs WT
Description: as §1, §2, §3

[3] = tested on: HIV-1 RT mutant V106A/F227L; assay: single round infection assay, V106A/F227L; assay type: cell-based; details: for fold-change of IC50 of the mutant relative to WT: V106A/F227L vs WT; for IC50: ± SD, n=4
Description: as §1, §2, §3

HIV-1 RT mutant D67E = assay: single round infection assay, D67E; assay type: cell-based; details: for fold-change of IC50 of the mutant relative to WT: D67E vs WT; for IC50: ± SD, n=4
Description: as §1, §2, §3

HIV-1 RT mutant E138K = assay: single round infection assay, E138K; assay type: cell-based; details: for fold-change of IC50 of the mutant relative to WT: E138K vs WT; for IC50: ± SD, n=4
Description: as §1, §2, §3

[4] = tested on: HIV-1 RT mutant K101E/M184I; assay: single round infection assay, K101E/M184I; assay type: cell-based; details: for fold-change of IC50 of the mutant relative to WT: K101E/M184I vs WT
Description: as §1, §2, §3

[5] = tested on: HIV-1 RT mutant E138K/M184V; assay: single round infection assay, E138K/M184V; assay type: cell-based; details: for fold-change of IC50 of the mutant relative to WT: E138K/M184V vs WT; for IC50: ± SD, n=4
Description: as §1, §2, §3

HIV-1 RT mutant K101P = assay: single round infection assay, K101P; assay type: cell-based; details: for IC50: Human immunodeficiency virus 1; for fold-change of IC50 of the mutant relative to WT: K101P vs WT
Description: as §1, §2, §3

HIV-1 RT mutant Y181I = assay: single round infection assay, Y181I; assay type: cell-based; details: for IC50: Human immunodeficiency virus 1; for fold-change of IC50 of the mutant relative to WT: Y181I vs WT
Description: as §1, §2, §3

HIV-1 RT mutant L100I = tested on: HIV-1 RT mutant L100I; set-up: method as in PMID 23217210; details: previous study; cited from earlier work
HIV-1 RT mutant Y181C = tested on: HIV-1 RT mutant Y181C; set-up: method as in PMID 23217210; details: previous study; cited from earlier work
[6] = Human immunodeficiency virus 1, E138K/M184V
[7] = Human immunodeficiency virus 1, D67E
[8] = Human immunodeficiency virus 1, E138K

Row | Structure (SMILES) | IC50 (HIV-1 RT mutant G190A) [nM] | IC50 (HIV-1 RT mutant P236L) [nM] | fold-change of IC50 of the mutant relative to WT [1] | IC50 [2] [nM] | fold-change of IC50 of the mutant relative to WT [2] | fold-change of IC50 of the mutant relative to WT [3] | fold-change of IC50 of the mutant relative to WT (HIV-1 RT mutant D67E) | fold-change of IC50 of the mutant relative to WT (HIV-1 RT mutant E138K) | fold-change of IC50 of the mutant relative to WT [4] | fold-change of IC50 of the mutant relative to WT [5] | IC50 ([5]; E138K/M184V) [nM] | IC50 [5, 6] [nM] | IC50 (HIV-1 RT mutant K101P) [nM] | fold-change of IC50 of the mutant relative to WT (HIV-1 RT mutant K101P) | IC50 (HIV-1 RT mutant Y181I) [nM] | fold-change of IC50 of the mutant relative to WT (HIV-1 RT mutant Y181I) | IC50 (HIV-1 RT mutant L100I) [nM] | IC50 (HIV-1 RT mutant Y181C) [nM] | IC50 (HIV-1 RT mutant D67E; [7]) [nM] | IC50 (HIV-1 RT mutant E138K; [8]) [nM] | also measured
1 | Cc1cc(/C=C/C#N)cc(C)c1Nc1ccnc(Nc2ccc(C#N)cc2)n1 [RPV, rilpivirine] | 0.4 ± 0.08 | 0.2 | 10 | 0.5 ± 0.02 | 2 | 3 | 3 | 4 | 3 | 5 | 1.3 ± 0.4 | < 2.5 | 6.2 | 26 | 8.8 | 37 | < 7 | < 7 | – | – | fold-change of IC50 of the mutant relative to WT (HIV-1 RT mutant G190A; G190A vs WT): < 2
2 | Cc1cc(/C=C/C#N)cc(C)c1Nc1nc(Nc2ccc(C#N)cc2)ncc1[N+](=O)[O-] [compound 6] | 0.2 ± 0.09 | 0.23 ± 0.06 | 4 | 1.1 ± 0.2 | 2 | 4 | 3 | 3 | < 2 | 3 | 1.63 ± 0.08 | < 2.5 | 2.5 | 5 | 55.3 | 110 | < 7 | < 7 | < 2.5 | < 2.5 | IC50 (HIV-1 RT mutant D67E; D67E): 1.7 ± 0.14 nM; IC50 (HIV-1 RT mutant E138K; E138K): 1.4 ± 0.3 nM
3 | Cc1cc(/C=C/C#N)cc(C)c1Nc1nc(Nc2ccc(C(F)(F)F)cc2)c2nc[nH]c2n1 [compound 15] | 0.77 ± 0.19 | 0.9 ± 0.08 | 9 | 2.6 ± 0.17 | < 2 | – | 8 | 4 | < 2 | < 2 | 3.1 ± 0.4 | < 6 | > 100 | – | 50.2 | 30 | < 7 | < 7 | 13.1 | < 6 | IC50 [1]: 15.5 nM; IC50 (HIV-1 RT mutant E138K; E138K): 6.3 ± 1.3 nM
4 | Cc1cc(/C=C/C#N)cc(C)c1Nc1ncc2ncn(-c3ccc(C#N)cc3)c2n1 [compound 26] | 2.2 | 2.91 | – | 46.2 ± 11.1 | 6 | 8 | 8 | 4 | – | < 2 | – | 13.2 ± 2.3 | > 100 | – | > 100 | – | – | – | 62.3 ± 1.3 | 28.8 ± 1.1 | IC50 [1]: > 100 nM; IC50 ([4]; Human immunodeficiency virus 1, K101E/M184I, ± SD, n=4): 7.3 ± 1.8 nM
5 | Cc1cc(/C=C/C#N)cc(C)c1-n1cnc2cnc(Nc3ccc(C#N)cc3)nc21 [compound 27] | 0.2 ± 0.1 | 0.2 ± 0.04 | 69 | 2.2 ± 1.2 | 4 | 5 | 2 | 2 | – | 3 | 1.8 ± 0.8 | < 2.5 | 4.9 | 8 | 23.1 | 40 | < 7 | < 7 | – | < 2.5 | IC50 [1]: 39.8 nM; IC50 ([3]; Human immunodeficiency virus 1, V106A/F227L (selected by DOR)): < 5 nM; IC50 ([3]; V106A/F227L (selected by DOR)): 2.9 ± 0.3 nM; IC50 (HIV-1 RT mutant E138K; E138K): 1.3 ± 0.14 nM
